Experiments:
Interstitial collagenase = biological target: T1, Interstitial collagenase (Homo sapiens, UniProt P03956); assay type: tissue-based, Rheumatoid synovial fibroblasts;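 also: MMP-1 enzyme inhibition assay using a peptide substrate; in other assays of this panel Not Active means under 50% inhibition at 10 µM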
T1 sequence (P03956 whole entry): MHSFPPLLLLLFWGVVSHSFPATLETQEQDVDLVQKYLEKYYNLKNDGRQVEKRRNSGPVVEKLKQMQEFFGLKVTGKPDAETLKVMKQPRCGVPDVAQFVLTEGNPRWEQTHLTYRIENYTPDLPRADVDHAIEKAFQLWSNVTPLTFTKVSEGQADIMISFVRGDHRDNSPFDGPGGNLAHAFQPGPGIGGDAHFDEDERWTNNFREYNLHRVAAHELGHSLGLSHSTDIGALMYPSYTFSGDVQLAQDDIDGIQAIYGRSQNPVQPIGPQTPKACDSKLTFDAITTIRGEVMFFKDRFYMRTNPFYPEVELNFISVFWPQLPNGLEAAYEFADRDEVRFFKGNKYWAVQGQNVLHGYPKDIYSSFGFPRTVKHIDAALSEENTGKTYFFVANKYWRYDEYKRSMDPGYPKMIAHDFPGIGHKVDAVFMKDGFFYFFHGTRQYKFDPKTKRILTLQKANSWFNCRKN

[1] = biological target: Matrix metalloproteinase-9 (Homo sapiens, UniProt P14780); assay type: cell-based;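 also: inhibition of isolated MMP-9 enzyme activity toward a synthetic peptide substrate, from the DrugMatrix protease screening panel; in other assays of this panel Not Active means under 50% inhibition at 10 µM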
Sequence of Matrix metalloproteinase-9 (P14780 whole entry): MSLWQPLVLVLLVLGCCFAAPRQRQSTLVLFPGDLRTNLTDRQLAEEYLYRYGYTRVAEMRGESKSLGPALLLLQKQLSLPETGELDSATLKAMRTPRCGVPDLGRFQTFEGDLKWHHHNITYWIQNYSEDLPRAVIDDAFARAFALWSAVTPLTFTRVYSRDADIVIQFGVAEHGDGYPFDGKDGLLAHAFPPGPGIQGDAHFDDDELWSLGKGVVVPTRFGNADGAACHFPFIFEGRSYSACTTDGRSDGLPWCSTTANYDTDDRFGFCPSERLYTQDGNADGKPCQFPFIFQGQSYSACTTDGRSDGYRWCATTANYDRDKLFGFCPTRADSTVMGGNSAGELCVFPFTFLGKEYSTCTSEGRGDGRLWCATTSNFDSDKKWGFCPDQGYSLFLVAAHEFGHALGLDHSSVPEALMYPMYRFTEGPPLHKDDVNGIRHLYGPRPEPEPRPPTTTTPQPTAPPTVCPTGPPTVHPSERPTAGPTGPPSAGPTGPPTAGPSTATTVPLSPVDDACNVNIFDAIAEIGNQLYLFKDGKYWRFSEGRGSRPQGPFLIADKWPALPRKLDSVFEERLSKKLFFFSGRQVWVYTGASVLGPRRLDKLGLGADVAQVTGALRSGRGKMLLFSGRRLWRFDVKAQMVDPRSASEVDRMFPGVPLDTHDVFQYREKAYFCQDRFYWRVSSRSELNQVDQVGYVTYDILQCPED

[2] = DRUGMATRIX: Phosphodiesterase PDE4 enzyme inhibition (substrate: [3H]cAMP + cAMP); conditions: u-937; Not Active = under 50% inhibition at 10 µM
[3] = biological target: T2, Alpha-2A adrenergic receptor (Homo sapiens, UniProt P08913); assay type: cell membranes, Sf9, Membrane; also: in other assays of this panel Not Active means under 50% inhibition at 10 µM
T2 sequence (P08913 whole entry): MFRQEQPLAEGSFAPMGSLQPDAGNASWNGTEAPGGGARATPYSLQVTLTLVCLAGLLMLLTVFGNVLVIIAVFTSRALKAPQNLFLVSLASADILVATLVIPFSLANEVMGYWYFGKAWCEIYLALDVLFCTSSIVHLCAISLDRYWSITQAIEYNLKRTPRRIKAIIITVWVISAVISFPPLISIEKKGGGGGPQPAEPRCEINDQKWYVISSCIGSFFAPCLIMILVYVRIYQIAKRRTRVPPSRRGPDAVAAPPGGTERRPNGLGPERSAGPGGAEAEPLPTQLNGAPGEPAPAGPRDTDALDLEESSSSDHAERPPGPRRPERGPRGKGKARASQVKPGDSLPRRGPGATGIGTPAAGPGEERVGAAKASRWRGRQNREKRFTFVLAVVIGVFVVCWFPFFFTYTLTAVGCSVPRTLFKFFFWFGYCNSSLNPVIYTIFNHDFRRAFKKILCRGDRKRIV

[4] = biological target: 5-hydroxytryptamine receptor 4 (Cavia porcellus, UniProt O70528); assay type: cell membranes, Dunkin-Hartley, Striatum, Membrane; also: in other assays of this panel Not Active means under 50% inhibition at 10 µM
Sequence of 5-hydroxytryptamine receptor 4 (O70528 whole entry): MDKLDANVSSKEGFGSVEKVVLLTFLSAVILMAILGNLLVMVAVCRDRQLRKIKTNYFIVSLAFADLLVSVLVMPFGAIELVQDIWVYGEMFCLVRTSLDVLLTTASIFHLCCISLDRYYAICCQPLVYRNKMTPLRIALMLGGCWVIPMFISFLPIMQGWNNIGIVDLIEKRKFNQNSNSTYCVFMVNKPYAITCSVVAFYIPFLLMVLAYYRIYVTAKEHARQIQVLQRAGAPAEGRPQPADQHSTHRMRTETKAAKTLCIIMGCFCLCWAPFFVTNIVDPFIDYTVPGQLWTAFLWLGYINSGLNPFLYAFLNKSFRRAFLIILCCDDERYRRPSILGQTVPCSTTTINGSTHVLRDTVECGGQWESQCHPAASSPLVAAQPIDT

[5] = biological target: Prostaglandin G/H synthase 1 (Homo sapiens, UniProt P23219); assay: biochemical; assay type: tissue-based, Platelet; conditions: platelet
Sequence of Prostaglandin G/H synthase 1 (P23219 whole entry): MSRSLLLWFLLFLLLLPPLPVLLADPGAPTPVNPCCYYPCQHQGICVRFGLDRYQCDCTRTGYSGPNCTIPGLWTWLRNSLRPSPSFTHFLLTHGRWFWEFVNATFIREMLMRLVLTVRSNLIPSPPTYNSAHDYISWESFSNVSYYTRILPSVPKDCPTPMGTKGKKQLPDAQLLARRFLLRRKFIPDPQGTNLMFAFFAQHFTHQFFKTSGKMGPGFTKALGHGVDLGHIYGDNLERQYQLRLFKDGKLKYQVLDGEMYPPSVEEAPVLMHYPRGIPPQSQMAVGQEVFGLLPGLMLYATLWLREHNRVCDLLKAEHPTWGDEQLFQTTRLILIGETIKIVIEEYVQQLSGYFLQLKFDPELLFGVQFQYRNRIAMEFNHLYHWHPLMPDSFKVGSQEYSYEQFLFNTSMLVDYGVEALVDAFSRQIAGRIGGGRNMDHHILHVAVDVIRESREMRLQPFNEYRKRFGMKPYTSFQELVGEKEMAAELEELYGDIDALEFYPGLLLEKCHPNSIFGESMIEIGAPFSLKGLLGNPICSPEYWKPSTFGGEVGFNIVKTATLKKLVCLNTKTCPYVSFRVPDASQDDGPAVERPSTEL

[6] = biological target: T3, Cholecystokinin receptor type A (Homo sapiens, UniProt P32238); assay type: cell membranes, Membrane; conditions: 1321-n1; also: in other assays of this panel Not Active means under 50% inhibition at 10 µM
T3 sequence (P32238 whole entry): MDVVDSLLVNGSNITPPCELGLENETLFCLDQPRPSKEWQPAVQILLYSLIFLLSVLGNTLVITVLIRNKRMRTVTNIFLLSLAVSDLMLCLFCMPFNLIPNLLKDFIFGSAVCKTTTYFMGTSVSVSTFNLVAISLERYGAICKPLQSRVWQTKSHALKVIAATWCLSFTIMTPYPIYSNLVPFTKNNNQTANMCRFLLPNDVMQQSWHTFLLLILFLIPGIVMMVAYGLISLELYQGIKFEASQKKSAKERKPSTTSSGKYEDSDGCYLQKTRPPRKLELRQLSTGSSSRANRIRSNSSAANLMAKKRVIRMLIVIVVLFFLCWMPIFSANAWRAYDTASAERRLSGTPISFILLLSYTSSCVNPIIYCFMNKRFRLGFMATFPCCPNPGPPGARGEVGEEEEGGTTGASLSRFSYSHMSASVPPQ

Mu-type opioid receptor = Mu-type opioid receptor (Homo sapiens, UniProt P35372); assay: DRUGMATRIX: Opiate mu (OP3, MOP) radioligand binding (ligand: [3H] Diprenorphine); assay type: cell membranes, CHO-K1, Membrane; conditions: cho-k1; Not Active = under 50% inhibition at 10 µM
Sequence of Mu-type opioid receptor (P35372 whole entry): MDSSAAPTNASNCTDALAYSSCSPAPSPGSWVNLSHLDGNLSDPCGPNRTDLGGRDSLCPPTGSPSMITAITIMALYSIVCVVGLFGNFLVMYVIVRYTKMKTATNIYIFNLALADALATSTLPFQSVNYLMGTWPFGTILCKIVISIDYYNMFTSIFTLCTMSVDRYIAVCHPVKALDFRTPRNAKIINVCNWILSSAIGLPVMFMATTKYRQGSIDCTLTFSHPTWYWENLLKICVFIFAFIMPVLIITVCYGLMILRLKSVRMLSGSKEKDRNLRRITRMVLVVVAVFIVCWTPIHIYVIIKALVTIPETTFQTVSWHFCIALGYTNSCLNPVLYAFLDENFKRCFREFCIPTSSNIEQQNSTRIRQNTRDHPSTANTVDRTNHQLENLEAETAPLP

[7] = DRUGMATRIX: Calcium Channel Type L, Phenylalkylamine radioligand binding (ligand: [3H] (-)-Desmethoxyverapamil (D-888)); assay type: cell membranes, Rattus norvegicus, Wistar, Brain, Membrane; conditions: Not Active = under 50% inhibition at 10 µM
[8] = biological target: Platelet-activating factor receptor (Homo sapiens, UniProt P25105); assay: biochemical; assay type: tissue-based; conditions: platelet; also: in other assays of this panel Not Active means under 50% inhibition at 10 µM
Sequence of Platelet-activating factor receptor (P25105 whole entry): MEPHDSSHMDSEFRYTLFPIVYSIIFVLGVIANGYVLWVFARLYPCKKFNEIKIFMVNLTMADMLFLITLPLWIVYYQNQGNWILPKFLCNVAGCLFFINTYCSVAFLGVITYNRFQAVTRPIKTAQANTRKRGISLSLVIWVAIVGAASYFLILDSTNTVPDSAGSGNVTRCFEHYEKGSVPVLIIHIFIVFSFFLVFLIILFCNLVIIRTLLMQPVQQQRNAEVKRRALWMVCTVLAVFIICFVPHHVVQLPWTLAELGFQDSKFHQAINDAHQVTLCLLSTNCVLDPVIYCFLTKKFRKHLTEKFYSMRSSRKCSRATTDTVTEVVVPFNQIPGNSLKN

Row | Compound | IC50 (Interstitial collagenase) | IC50 [1] | IC50 [2] | Ki [2] | IC50 ([3]; sf9) | IC50 [4] | IC50 [5] | IC50 [6] | IC50 (Mu-type opioid receptor) | IC50 [7] | Ki [7] | IC50 [8] | IC50 ([3]; read-out: IC50) [µM] | Ki ([3]; read-out: Ki) [µM]
1 | Oc1c(I)cc(I)c2cccnc12 [IODOQUINOL] | Not Active | Not Active | Not Active | Not Active | Not Active | Not Active | Not Active | Not Active | Not Active | Not Active | Not Active | Not Active | – | –
2 | NNC(=O)c1ccncc1 [ISONIAZID] | Not Active | Not Active | Not Active | Not Active | Not Active | Not Active | Not Active | Not Active | Not Active | Not Active | Not Active | Not Active | – | –
3 | CC1=C(/C=C/C(C)=C/C=C/C(C)=C\C(=O)O)C(C)(C)CCC1 [ISOTRETINOIN] | Not Active | Not Active | Not Active | Not Active | Not Active | Not Active | Not Active | Not Active | Not Active | Not Active | Not Active | Not Active | – | –
4 | CO[C@@H]1[C@@H](O[C@@H]2O[C@H](C)[C@@H](O[C@H]3C[C@@](C)(O)[C@@H](OC(=O)CC(C)C)[C@H](C)O3)[C@H](N(C)C)[C@H]2O)[C@@H](CC=O)C[C@@H](C)[C@@H](O)/C=C/C=C/C[C@@H](C)OC(=O)C[C@H]1O [KITASAMYCIN] | Not Active | Not Active | Not Active | Not Active | Not Active | Not Active | Not Active | Not Active | Not Active | Not Active | Not Active | Not Active | – | –
5 | CC(CCc1ccccc1)NCC(O)c1ccc(O)c(C(N)=O)c1 (centres undefined) [LABETALOL] | Not Active | Not Active | Not Active | Not Active | Not Active | Not Active | Not Active | Not Active | Not Active | Not Active | Not Active | Not Active | – | –
6 | Nc1nnc(-c2cccc(Cl)c2Cl)c(N)n1 [LAMOTRIGINE] | Not Active | Not Active | Not Active | Not Active | Not Active | Not Active | Not Active | Not Active | Not Active | Not Active | Not Active | Not Active | – | –
7 | CCC[C@@H]1C[C@@H](C(=O)N[C@@H]([C@H]2O[C@H](SC)[C@H](O)[C@@H](O)[C@H]2O)[C@@H](C)O)N(C)C1 [LINCOMYCIN] | Not Active | Not Active | Not Active | Not Active | Not Active | Not Active | Not Active | Not Active | Not Active | Not Active | Not Active | Not Active | – | –
8 | NCCCC[C@H](N[C@@H](CCc1ccccc1)C(=O)O)C(=O)N1CCC[C@H]1C(=O)O [LISINOPRIL ANHYDROUS] | Not Active | Not Active | Not Active | Not Active | Not Active | Not Active | Not Active | Not Active | Not Active | Not Active | Not Active | Not Active | – | –
9 | COS(C)(=O)=O [METHANESULFONIC ACID METHYL ESTER] | Not Active | Not Active | Not Active | Not Active | Not Active | Not Active | Not Active | Not Active | Not Active | Not Active | Not Active | Not Active | – | –
10 | COC(=O)c1ccc(O)cc1 [METHYLPARABEN] | Not Active | Not Active | Not Active | Not Active | Not Active | Not Active | Not Active | Not Active | Not Active | Not Active | Not Active | Not Active | – | –
11 | C[C@](N)(Cc1ccc(O)cc1)C(=O)O [METYROSINE] | Not Active | Not Active | Not Active | Not Active | Not Active | Not Active | Not Active | Not Active | Not Active | Not Active | Not Active | Not Active | – | –
12 | Clc1ccc(C(c2ccccc2Cl)C(Cl)Cl)cc1 (centres undefined) [MITOTANE] | Not Active | Not Active | Not Active | Not Active | – | Not Active | Not Active | Not Active | Not Active | Not Active | Not Active | Not Active | 7.35 | 2.75
13 | O=C1c2c(O)ccc(O)c2C(=O)c2c(NCCNCCO)ccc(NCCNCCO)c21 [MITOXANTRONE] | Not Active | Not Active | Not Active | Not Active | Not Active | Not Active | Not Active | Not Active | Not Active | Not Active | Not Active | Not Active | – | –
14 | COc1c(C)c2c(c(O)c1C/C=C(\C)CCC(=O)OCCN1CCOCC1)C(=O)OC2 [MYCOPHENOLATE MOFETIL] | Not Active | Not Active | Not Active | Not Active | Not Active | Not Active | Not Active | Not Active | Not Active | Not Active | Not Active | Not Active | – | –

— ChEMBL document CHEMBL1909046, “DrugMatrix in vitro pharmacology data”
